Data taken from article PMC6480460, “Derivatives of the β-Crinane Amaryllidaceae Alkaloid Haemanthamine as Multi-Target Directed Ligands for Alzheimer’s Disease” (Molecules, 2019).
Read-outs that look alike come from different tables or passages of the source.

Columns and labels:
hBuChE [1] = biological target: T1, hBuChE (Homo sapiens, UniProt P06276); experiment: biochemical; assay type: biochemical
Procedure: (§1) The hAChE and hBuChE activities were determined using a modified method of Ellman with acetylthiocholine iodide (ATChI) and butyrylthiocholine iodide (BuTChI) as substrates, respectively.

hAChE [2] = biological target: T2, hAChE (Homo sapiens, UniProt P22303); experiment: biochemical; assay type: biochemical; details: for IC50: mean ± SEM of three independent measurements, each in triplicate
T2 sequence (P22303 32-614): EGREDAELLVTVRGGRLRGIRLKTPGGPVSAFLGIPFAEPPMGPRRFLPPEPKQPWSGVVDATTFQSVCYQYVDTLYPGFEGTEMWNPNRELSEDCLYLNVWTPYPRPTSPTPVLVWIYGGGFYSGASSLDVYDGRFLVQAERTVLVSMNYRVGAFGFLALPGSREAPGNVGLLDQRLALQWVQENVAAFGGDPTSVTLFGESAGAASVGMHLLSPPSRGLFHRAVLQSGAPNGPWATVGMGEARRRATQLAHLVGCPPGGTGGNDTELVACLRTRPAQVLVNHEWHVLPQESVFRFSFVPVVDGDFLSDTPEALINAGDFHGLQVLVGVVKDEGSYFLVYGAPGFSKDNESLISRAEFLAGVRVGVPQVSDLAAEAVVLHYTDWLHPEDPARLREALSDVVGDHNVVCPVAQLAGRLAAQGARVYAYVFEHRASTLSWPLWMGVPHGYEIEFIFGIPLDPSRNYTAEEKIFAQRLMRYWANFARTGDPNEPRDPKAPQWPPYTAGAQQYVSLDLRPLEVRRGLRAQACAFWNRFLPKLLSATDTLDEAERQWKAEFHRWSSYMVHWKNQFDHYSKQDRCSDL
Procedure: as §1

[3] = tested on: human cell lines (Jurkat, MOLT-4, A549, HT-29, PANC-1, A2780, HeLa, MCF-7, SAOS-2 and MRC-5); experiment: WST-1 antiproliferative screen, whole panel of tested human cell lines; assay type: cell-based; details: 10 µM single-dose, 48 h of exposure
Procedure: The antiproliferative effect of 1a–1m at 10 µM single-dose treatment regimen was assessed using WST-1 tetrazolium salt assay. […] Kinetic analysis of 1j and 1m was used for the determination of their inhibition pattern against both hAChE and hBuChE. […] The Km and Vm values were calculated from the Lineweaver-Burk plot. […]
The WST-1 (Roche, Mannheim, Germany) reagent was used to determine the cytostatic effect of the test compounds. WST-1 is designed for the spectrophotometric quantification of cell proliferation, growth, viability and chemosensitivity in cell populations using a 96-well-plate format (Sigma, St. Louis, MO, USA). […] Absorbance was measured after 3 h incubation with WST-1 at 440 nm. […] The viability was quantified as described previously according to the following formula: (%) viability = (Asample − Ablank)/(Acontrol − Ablank) × 100, where A is the absorbance of the employed WST-1 formazan measured at 440 nm. […]

[4] = tested on: MOLT-4 (acute lymphoblastic leukemia); experiment: WST-1 cytotoxicity assay, MOLT-4; assay type: cell-based; details: Homo sapiens, c = 10 μM, 48 h, percent of proliferation of untreated control cells, read-out: Cell proliferation, MOLT-4
Description: (§2) Selected human tumor and non-tumor cell lines {Jurkat (acute T cell leukemia), MOLT-4 (acute lymphoblastic leukemia), A549 (lung carcinoma), HT-29 (colorectal adenocarcinoma), PANC-1 (pancreas epithelioid carcinoma), A2780 (ovarian carcinoma), HeLa (cervix adenocarcinoma), MCF-7 (breast adenocarcinoma), SAOS-2 (osteosarcoma) and MRC-5 (normal lung fibroblasts)} were purchased from either ATCC (Manassas, VA, USA) or Sigma-Aldrich (St. Louis, MO, USA) and cultured according to the provider’s culture method guidelines. […] Cells in the maximum range of either 10 passages for primary cell line (MRC-5), or in the maximum range of 20 passages for cancer cell lines (Jurkat, MOLT-4, A549, HT-29, PANC-1, A2780, HeLa, MCF-7 and SAOS-2) and in an exponential growth phase were used for this study.
(§3) The WST-1 (Roche, Mannheim, Germany) reagent was used to determine the cytostatic effect of the test compounds. WST-1 is designed for the spectrophotometric quantification of cell proliferation, growth, viability and chemosensitivity in cell populations using a 96-well-plate format (Sigma, St. Louis, MO, USA). The principle of WST-1 is based on photometric detection of the reduction of tetrazolium salt to a colored formazan product. The cells were seeded at a previously established optimal density (30,000 Jurkat, 25,000 MOLT-4, 500 A549, 1500 HT-29, 2000 PANC-1, 5000 A2780, 500 HeLa, 1500 MCF-7, 2000 SAOS-2 and 2000 MRC-5 cells/well) in 100 µL of culture medium, and adherent cells were allowed to reattach overnight. Thereafter, the cells were treated with 100 µL of either corresponding alkaloids or doxorubicin stock solutions to obtain the desired concentrations and incubated in 5% CO2 at 37 °C. WST-1 reagent diluted 4-fold with PBS (50 µL) was added 48 h after treatment. Absorbance was measured after 3 h incubation with WST-1 at 440 nm. The measurements were performed in a Tecan Infinite M200 spectrometer (Tecan Group, Männedorf, Switzerland). All experiments were performed at least three times with triplicate measurements at each drug concentration per experiment. The viability was quantified as described previously according to the following formula: (%) viability = (Asample − Ablank)/(Acontrol − Ablank) × 100, where A is the absorbance of the employed WST-1 formazan measured at 440 nm. The viability of the treated cells was normalized to the viability of cells treated with 0.1% DMSO (Sigma-Aldrich) as a vehicle control.

[5] = tested on: HT-29 (colorectal adenocarcinoma); experiment: WST-1 cytotoxicity assay, HT-29; assay type: cell-based; details: Homo sapiens, c = 10 μM, 48 h, percent of proliferation of untreated control cells, read-out: Cell proliferation, HT-29
Description: as §2, §3

in vitro = details: for PAMPA-BBB Permeability (Pe) / Papp: PBS:EtOH (70:30) as solvent, mean ± SD of 2 independent experiments; for PAMPA-BBB prediction of penetration in the CNS: class from Pe; for Papp: pig, PAMPA, PAMPA-BBB Permeability (Pe)
Procedure: The PAMPA assay was performed as previously described.

[6] = tested on: Jurkat (acute T cell leukemia); experiment: WST-1 cytotoxicity assay, Jurkat; assay type: cell-based; details: Homo sapiens, c = 10 μM, 48 h, percent of proliferation of untreated control cells
Description: as §2, §3

SAOS-2 (osteosarcoma) = experiment: WST-1 cytotoxicity assay, SAOS-2; assay type: cell-based; details: Homo sapiens, c = 10 μM, 48 h, percent of proliferation of untreated control cells, read-out: Cell proliferation, SAOS-2
Description: as §2, §3

hBuChE [7] = biological target: T1, hBuChE; experiment: BuChE inhibition mechanism (Lineweaver-Burk kinetic analysis); assay type: biochemical; details: for mechanism of inhibition of hBuChE: Lineweaver-Burk plot, Km and Vm decreased
Procedure: (§4) The antiproliferative effect of 1a–1m at 10 µM single-dose treatment regimen was assessed using WST-1 tetrazolium salt assay. […] Kinetic analysis of 1j and 1m was used for the determination of their inhibition pattern against both hAChE and hBuChE. […] The Km and Vm values were calculated from the Lineweaver-Burk plot.

A549 (lung carcinoma) = experiment: WST-1 cytotoxicity assay, A549; assay type: cell-based; details: Homo sapiens, c = 10 μM, 48 h, percent of proliferation of untreated control cells, read-out: Cell proliferation, A549
Description: as §2, §3

[8] = tested on: PANC-1 (pancreas epithelioid carcinoma); experiment: WST-1 cytotoxicity assay, PANC-1; assay type: cell-based; details: Homo sapiens, c = 10 μM, 48 h, percent of proliferation of untreated control cells, read-out: Cell proliferation, PANC-1
Description: as §2, §3

hAChE [9] = biological target: T2, hAChE; experiment: AChE inhibition mechanism (Lineweaver-Burk kinetic analysis); assay type: biochemical; details: Lineweaver-Burk plot; Km and Vm decreased
Procedure: as §4

GSK-3β = GSK-3β (Homo sapiens, UniProt P49841); experiment: GSK-3β assay (Kinase-Glo Kit); assay type: biochemical; details: for inhibition at 10 µM: tested at 10 µM compound concentration, read-out: GSK-3β (% inhib.)
GSK-3β, sequence (P49841 whole entry): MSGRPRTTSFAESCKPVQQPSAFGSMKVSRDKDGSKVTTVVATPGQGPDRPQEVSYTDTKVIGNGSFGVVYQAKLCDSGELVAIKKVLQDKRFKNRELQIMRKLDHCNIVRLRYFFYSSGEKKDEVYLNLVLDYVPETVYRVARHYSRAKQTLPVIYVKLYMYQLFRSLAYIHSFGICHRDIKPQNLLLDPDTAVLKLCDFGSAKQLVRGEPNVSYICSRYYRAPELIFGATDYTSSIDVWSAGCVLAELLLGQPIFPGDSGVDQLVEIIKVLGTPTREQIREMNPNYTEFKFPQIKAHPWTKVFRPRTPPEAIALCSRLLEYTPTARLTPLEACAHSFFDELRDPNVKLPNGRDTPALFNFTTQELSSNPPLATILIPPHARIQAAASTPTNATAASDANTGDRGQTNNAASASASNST
Procedure: The GSK-3β assay was performed by using Kinase-Glo Kit obtained from Promega (Promega Biotech Iberica, SL, Madrid, Spain) as described previously.

[10] = tested on: HeLa (cervix adenocarcinoma); experiment: WST-1 cytotoxicity assay, HeLa; assay type: cell-based; details: Homo sapiens, c = 10 μM, 48 h, percent of proliferation of untreated control cells, read-out: Cell proliferation, HeLa
Description: as §2, §3

[11] = tested on: MCF-7 (breast adenocarcinoma); experiment: WST-1 cytotoxicity assay, MCF-7; assay type: cell-based; details: Homo sapiens, MCF7; c = 10 μM, 48 h, percent of proliferation of untreated control cells; read-out: Cell proliferation, MCF-7
Description: as §2, §3

[12] = tested on: MRC-5 (normal lung fibroblasts); experiment: WST-1 cytotoxicity assay, MRC-5; assay type: cell-based; details: Homo sapiens, MRC5; c = 10 μM, 48 h, percent of proliferation of untreated control cells; read-out: Cell proliferation, MRC-5
Description: as §2, §3

[13] = tested on: A2780 (ovarian carcinoma); experiment: WST-1 cytotoxicity assay, A2780; assay type: cell-based; details: Homo sapiens, c = 10 μM, 48 h, percent of proliferation of untreated control cells, read-out: Cell proliferation, A2780
Description: as §2, §3

[14] = mean ± SEM of three independent measurements, each in triplicate, read-out: hBuChE IC50

T1 sequence (P06276 29-602): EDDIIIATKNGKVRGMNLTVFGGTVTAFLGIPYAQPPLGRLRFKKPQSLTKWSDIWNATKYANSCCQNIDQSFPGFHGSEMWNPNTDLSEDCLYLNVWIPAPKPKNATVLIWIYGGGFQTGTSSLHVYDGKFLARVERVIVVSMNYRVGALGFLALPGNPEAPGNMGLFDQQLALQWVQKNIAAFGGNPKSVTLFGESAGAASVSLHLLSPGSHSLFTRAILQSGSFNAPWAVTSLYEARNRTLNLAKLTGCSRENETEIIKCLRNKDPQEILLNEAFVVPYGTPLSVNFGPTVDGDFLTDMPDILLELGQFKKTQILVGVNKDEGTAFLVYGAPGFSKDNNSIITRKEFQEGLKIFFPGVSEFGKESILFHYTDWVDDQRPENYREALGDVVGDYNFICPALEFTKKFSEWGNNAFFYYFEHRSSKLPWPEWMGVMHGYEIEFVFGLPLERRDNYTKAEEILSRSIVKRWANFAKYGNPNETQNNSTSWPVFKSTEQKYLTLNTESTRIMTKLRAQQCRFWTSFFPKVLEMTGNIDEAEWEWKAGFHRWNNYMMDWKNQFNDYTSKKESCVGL

| SMILES | IC50 (hAChE [2]) [µM] | viability at 10 µM [4] [%] | activity at 10 µM [5] [%] | PAMPA-BBB Permeability (Pe) (in vitro) | PAMPA-BBB prediction of penetration in the CNS (in vitro) | Papp (in vitro) [×10⁻⁶ cm/s] | activity at 10 µM [6] [%] | activity at 10 µM (SAOS-2 (osteosarcoma)) [%] | mechanism of inhibition of hBuChE (hBuChE [7]) | activity at 10 µM (A549 (lung carcinoma)) [%] | activity at 10 µM [8] [%] | IC50 (hBuChE [1]; [14]) [µM] | mechanism of inhibition of hAChE (hAChE [9]) | inhibition at 10 µM (GSK-3β) [%] | activity at 10 µM [10] [%] | activity at 10 µM [11] [%] | activity at 10 µM [12] [%] | activity at 10 µM [13] [%] | further results |
| --- | --- | --- | --- | --- | --- | --- | --- | --- | --- | --- | --- | --- | --- | --- | --- | --- | --- | --- | --- |
| COC1C=CC23c4cc5c(cc4CN(CC2O)C3C1)OCO5 (stereo not shown) [Compound 1, Haemanthamine] | > 500 | – | – | – | – | – | – | – | – | – | – | – | – | – | – | – | – | – | IC50 (hBuChE [1]): > 500 µM; hBuChE inhibition activity, in words (hBuChE [1]; cholinesterase assay): completely inactive; hAChE inhibition activity, in words (hAChE [2]; cholinesterase assay): completely inactive; toxicity against the tested human cell lines, in words [3]: potent cytotoxic and apoptotic effects |
| COC1C=CC23c4cc5c(cc4CN(CC2OC(=O)c2ccccc2C)C3C1)OCO5 (stereo not shown) [Compound 1j, 11-O-(2-Methylbenzoyl)haemanthamine] | 18.2 ± 1.3 | 91 ± 3 | 98 ± 6 | 5.8 ± 0.9 10^−6 cm s^−1 | CNS+ (CNS(+): high BBB permeation predicted with Pe (10^−6 cm.s^−1) > 4.0) | > 4 | 95 ± 11 | 97 ± 17 | mixed mechanism of inhibition | 96 ± 8 | 95 ± 6 | 6.6 ± 1.2 | mixed mechanism of inhibition | 15 ± 6 | 104 ± 4 | 112 ± 3 | 112 ± 9 | 129 ± 11 | PAMPA-BBB prediction of penetration in the CNS (in vitro; listed as 18j): CNS +; Ki (hBuChE [7]; from Lineweaver-Burk kinetic analysis): 12.5 ± 0.45 µM; SI for hAChE (hAChE [2]): 0.4 |
| COC1C=CC23c4cc5c(cc4CN(CC2OC(=O)c2ccc([N+](=O)[O-])cc2)C3C1)OCO5 (stereo not shown) [Compound 1m, 11-O-(4-Nitrobenzoyl)haemanthamine] | 14.7 ± 1.8 | 76 ± 12 | 73 ± 2 | 7.1 ± 0.3 10^−6 cm s^−1 | CNS+ (CNS(+): high BBB permeation predicted with Pe (10^−6 cm.s^−1) > 4.0) | > 4 | 69 ± 7 | 69 ± 4 | mixed mechanism of inhibition | 74 ± 6 | 71 ± 7 | > 500 | mixed mechanism of inhibition | 27 ± 9 | 71 ± 1 | 62 ± 10 | 61 ± 8 | 86 ± 4 | PAMPA-BBB prediction of penetration in the CNS (in vitro; listed as 18m): CNS +; IC50 (GSK-3β; mean ± SEM of three independent measurements): 34.8 ± 0.01 µM |
